Tests used:
PDGF receptor kinase = settings: Nature Reviews, 2002, 1, 493-502; Cancer Research, 1996, 56, 100-104; cited from earlier work
[1] = test system: human glioblastoma lines U343 and U87; settings: injection into the brains of nude mice of U343 and U87; Cancer Research, 2000, 60, 5143-5150; cited from earlier work
[2] = test system: dermatofibrosarcoma protruberans cell cultures; settings: Cancer Research, 2001, 61, 5778-5783; cited from earlier work
PDGFRα tyrosine kinase = target: T1, PDGFRα tyrosine kinase (Homo sapiens, UniProt P16234); assay: In vitro enzyme assay (ELISA), PDGFRα; format: biochemical; settings: Test (a); ATP 14 μM; read-out: IC50 versus PDGFRα tyrosine kinase
T1 construct: PDGFRα, PDGFRβ and KDR receptor cytoplasmic domains, obtained by expression of recombinant protein in insect cells; purchased Upstate Biotechnology Inc. 14-467; host or cells: Sf9 insect cells
T1 sequence (P16234 550-1089 limits assumed): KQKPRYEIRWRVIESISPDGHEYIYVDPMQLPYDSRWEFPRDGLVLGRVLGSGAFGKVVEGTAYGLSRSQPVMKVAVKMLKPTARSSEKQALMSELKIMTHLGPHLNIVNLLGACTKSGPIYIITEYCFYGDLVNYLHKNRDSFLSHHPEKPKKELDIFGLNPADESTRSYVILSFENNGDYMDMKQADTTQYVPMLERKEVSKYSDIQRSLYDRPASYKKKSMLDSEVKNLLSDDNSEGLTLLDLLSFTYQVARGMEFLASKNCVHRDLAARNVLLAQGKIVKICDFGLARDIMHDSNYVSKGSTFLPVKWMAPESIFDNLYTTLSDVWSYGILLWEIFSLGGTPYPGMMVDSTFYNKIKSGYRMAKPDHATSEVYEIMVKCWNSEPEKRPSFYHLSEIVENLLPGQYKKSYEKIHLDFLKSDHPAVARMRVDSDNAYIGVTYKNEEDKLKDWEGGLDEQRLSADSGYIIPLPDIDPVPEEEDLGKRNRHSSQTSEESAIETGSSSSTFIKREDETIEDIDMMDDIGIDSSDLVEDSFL
Description: (§1) (a) In Vitro Enzyme Assays
(§2) The ability of test compounds to inhibit the phosphorylation of a tyrosine containing polypeptide substrate by the tyrosine kinase enzymes PDGFRα, PDGFRβ and KDR was assessed using conventional ELISA assays.
(§3) DNA encoding the PDGFRα, PDGFRβ or KDR receptor cytoplasmic domains may be obtained by total gene synthesis (International Biotechnology Lab., 1987, 5(3), 19-25) or by cloning. The DNA fragments may be expressed in a suitable expression system to obtain polypeptide with tyrosine kinase activity. For example, PDGFRα, PDGFRβ and KDR receptor cytoplasmic domains, obtained by expression of recombinant protein in insect cells, can be shown to display intrinsic tyrosine kinase activity. In the case of the VEGF receptor KDR (Genbank Accession No. L04947), a DNA fragment encoding most of the cytoplasmic domain, commencing with methionine 806 and including the termination codon may be cloned into a baculovirus transplacement vector [for example pAcYM1 (see The Baculovirus Expression System: A Laboratory Guide, L. A. King and R. D. Possee, Chapman and Hall, 1992) or pAc360 or pBlueBacHis (available from Invitrogen Corporation)]. This recombinant construct may be co-transfected into insect cells [for example Spodoptera frugiperda 21 (Sf21) or Spodoptera frugiperda 9 (Sf9)] with viral DNA (for example Pharmingen BaculoGold) to prepare recombinant baculovirus. Details of the methods for the assembly of recombinant DNA molecules and the preparation and use of recombinant baculovirus can be found in standard texts, for example Sambrook et al., 1989, Molecular cloning—A Laboratory Manual, 2nd edition, Cold Spring Harbour Laboratory Press and O'Reilly et al., 1992, Baculovirus Expression Vectors—A Laboratory Manual, W.H. Freeman and Co, New York). […]

PDGFRβ tyrosine kinase = target: T2, PDGFRβ tyrosine kinase (Homo sapiens, UniProt P09619); assay: In vitro enzyme assay (ELISA), PDGFRβ; format: biochemical; settings: Test (a); ATP 2.8 μM; read-out: IC50 versus PDGFRβ tyrosine kinase
T2 construct: PDGFRα, PDGFRβ and KDR receptor cytoplasmic domains, obtained by expression of recombinant protein in insect cells; purchased Upstate Biotechnology Inc. 14-463; host or cells: Sf9 insect cells
T2 sequence (P09619 554-1106 limits assumed): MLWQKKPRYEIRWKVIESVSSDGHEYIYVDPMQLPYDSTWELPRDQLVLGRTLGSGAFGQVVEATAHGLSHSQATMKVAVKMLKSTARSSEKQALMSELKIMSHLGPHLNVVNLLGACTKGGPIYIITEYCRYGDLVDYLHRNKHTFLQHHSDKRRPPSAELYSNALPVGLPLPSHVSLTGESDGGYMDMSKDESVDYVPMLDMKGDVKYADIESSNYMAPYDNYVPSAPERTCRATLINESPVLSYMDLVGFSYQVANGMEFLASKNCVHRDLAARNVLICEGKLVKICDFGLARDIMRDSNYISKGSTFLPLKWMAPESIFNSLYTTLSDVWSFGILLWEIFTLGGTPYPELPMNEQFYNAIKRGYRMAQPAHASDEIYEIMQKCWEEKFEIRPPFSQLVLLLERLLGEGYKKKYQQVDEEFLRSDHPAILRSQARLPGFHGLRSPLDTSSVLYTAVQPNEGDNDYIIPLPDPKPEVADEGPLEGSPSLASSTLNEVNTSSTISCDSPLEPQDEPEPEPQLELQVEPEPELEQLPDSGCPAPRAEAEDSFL
Description: as §1, §2, §3

phospho-Tyr751 PDGFRβ = target: T3, phospho-Tyr751 PDGFRβ (Homo sapiens, UniProt P09619); assay: In vitro phospho-Tyr751 PDGFRβ ELISA assay; format: cell-based; settings: Test (b); MG63 osteosarcoma cells stimulated with PDGFBB; read-out: IC50 versus phospho-Tyr751 PDGFRβ
T3 construct: phosphorylation of PDGFR expressed on MG63 osteosarcoma cells; endogenous in cells; host or cells: MG63 osteosarcoma cells
T3 sequence (P09619 33-1106): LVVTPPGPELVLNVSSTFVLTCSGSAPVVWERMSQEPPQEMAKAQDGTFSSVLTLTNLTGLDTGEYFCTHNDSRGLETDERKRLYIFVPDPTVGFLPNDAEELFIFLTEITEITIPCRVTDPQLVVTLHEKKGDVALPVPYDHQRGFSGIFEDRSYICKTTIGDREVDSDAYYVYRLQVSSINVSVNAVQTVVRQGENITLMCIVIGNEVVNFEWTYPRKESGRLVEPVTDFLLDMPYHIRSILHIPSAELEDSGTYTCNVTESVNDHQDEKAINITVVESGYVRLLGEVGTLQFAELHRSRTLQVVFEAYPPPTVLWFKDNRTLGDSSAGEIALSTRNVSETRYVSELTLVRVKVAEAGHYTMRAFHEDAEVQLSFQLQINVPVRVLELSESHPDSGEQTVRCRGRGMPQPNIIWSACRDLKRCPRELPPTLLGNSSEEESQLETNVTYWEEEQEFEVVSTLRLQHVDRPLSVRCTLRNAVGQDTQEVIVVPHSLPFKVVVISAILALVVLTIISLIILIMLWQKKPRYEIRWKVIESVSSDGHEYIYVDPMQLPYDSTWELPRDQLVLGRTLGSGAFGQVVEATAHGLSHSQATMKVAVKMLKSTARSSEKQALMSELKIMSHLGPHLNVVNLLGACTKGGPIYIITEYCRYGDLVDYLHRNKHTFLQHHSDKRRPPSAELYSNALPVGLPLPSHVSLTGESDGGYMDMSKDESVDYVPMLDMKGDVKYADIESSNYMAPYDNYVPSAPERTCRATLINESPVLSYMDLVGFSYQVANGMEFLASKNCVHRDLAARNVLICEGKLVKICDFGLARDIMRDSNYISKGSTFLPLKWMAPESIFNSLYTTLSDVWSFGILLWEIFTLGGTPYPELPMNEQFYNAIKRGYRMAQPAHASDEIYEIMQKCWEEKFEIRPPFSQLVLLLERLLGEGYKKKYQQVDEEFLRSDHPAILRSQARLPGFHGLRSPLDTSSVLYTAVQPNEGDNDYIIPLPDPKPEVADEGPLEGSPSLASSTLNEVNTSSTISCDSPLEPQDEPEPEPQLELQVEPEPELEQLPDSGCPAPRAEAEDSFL
Description: (b) In Vitro Phospho-Tyr751 PDGFRβ ELISA Assay
This assay uses a conventional EISA method to determine the ability of test compounds to inhibit phosphorylation of tyrosine in PDGFRβ.
An MG63 osteosarcoma cell line [American Type Culture Collection (ATCC) CCL 1427] was routinely maintained at 37° C. with 7.5% CO2 in Dulbecco's modified Eagle's growth medium (DMEM; Sigma-Aldrich; Catalogue No. D6546) containing 10% foetal calf serum (FCS; Sigma-Aldrich; Catalogue No. F7524) and 2 mM L-glutamine (Invitrogen Ltd., Paisley, UK; Catalogue No. 25030-024).
For the assay, the cells were detached from the culture flask using a trypsin/ethylenediaminetetraacetic acid (EDTA) mixture (Invitrogen Ltd.; Catalogue No. 15400-054) and resuspended in test media comprising DMEM without phenol red (Sigma-Aldrich; Catalogue No. D5921) containing 1% charcoal-stripped foetal calf serum (FCS) (Sigma-Aldrich; Catalogue No. F7524, stripped by incubation with dextran-coated activated charcoal at 55° C. for 30 minutes with continuous stirring followed by removal of the charcoal by centrifugation and filter sterilisation) and 2 mM L-glutamine (Invitrogen Ltd., Catalogue No. 25030-024) to give 6×10^4 cells per ml. Aliquots (100 μl) were seeded into each of the wells of columns 2-12 (excluding column 1) and rows B-G (excluding rows A and H) of a clear 96 well tissue culture plate (Corning Life Sciences, Koolhovenlaan, The Netherlands; Catalogue No. 3595) to give a density of about 6000 cells per well. Aliquots (100 μl) of culture media were placed in the outer wells to minimise edge effects. The cells were incubated overnight at 37° C. with 7.5% CO2 to allow the cells to adhere to the wells.
Test compounds were prepared as 10 mM stock solutions in DMSO and serially diluted as required with test media to give a range of concentrations. Aliquots (50 μl) of each compound concentration were added to the cells in each well. Control cells received a dilution of DMSO only. The cells were incubated for 90 minutes at 37° C. with 7.5% CO2.
The resultant cells were stimulated with PDGFBB using the following procedure. A lyophilised powder of PDGFBB, (Sigma-Aldrich; Catalogue No. P4306) was mixed with 4 mM aqueous hydrochloric acid containing 0.1% filter-sterilised BSA to provide a stock solution of 10 μg/ml of PDGFBB. A dilution of this stock solution into test medium provided a 200 ng/ml PDGFBB solution. Aliquots thereof (50 μl) were added to compound treated cells and to one set of control wells to give the “maximum” control. The “minimum” controls received media only. The cells were incubated at 37° C. with 7.5% CO2 for 5 minutes. […]

KDR tyrosine kinase = target: T4, KDR tyrosine kinase (Homo sapiens, UniProt P35968); assay: In vitro enzyme assay (ELISA), KDR; format: biochemical; settings: Test (a); ATP 8 μM; read-out: IC50 versus KDR tyrosine kinase
T4 construct: encoding most of the cytoplasmic domain, commencing with methionine 806 and including the termination codon; made in house; host or cells: Sf9 insect cells (baculovirus)
T4 sequence (P35968 786-1356 limits assumed): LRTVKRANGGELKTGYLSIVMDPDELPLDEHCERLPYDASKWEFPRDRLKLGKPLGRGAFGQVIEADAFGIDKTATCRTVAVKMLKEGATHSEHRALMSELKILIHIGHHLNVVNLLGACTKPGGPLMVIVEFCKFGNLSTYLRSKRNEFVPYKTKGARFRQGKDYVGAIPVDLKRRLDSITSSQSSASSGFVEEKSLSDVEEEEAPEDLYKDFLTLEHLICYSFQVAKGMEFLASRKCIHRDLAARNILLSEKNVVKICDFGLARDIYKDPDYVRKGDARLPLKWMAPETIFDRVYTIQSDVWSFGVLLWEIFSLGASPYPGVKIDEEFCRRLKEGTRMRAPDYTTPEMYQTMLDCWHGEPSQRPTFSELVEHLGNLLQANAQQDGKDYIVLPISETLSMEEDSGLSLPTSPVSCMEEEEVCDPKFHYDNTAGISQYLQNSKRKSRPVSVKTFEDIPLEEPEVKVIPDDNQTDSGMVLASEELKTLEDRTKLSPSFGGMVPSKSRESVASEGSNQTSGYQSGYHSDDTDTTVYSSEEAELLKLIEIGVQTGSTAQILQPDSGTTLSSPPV
Description: as §1, §2
DNA encoding the PDGFRα, PDGFRβ or KDR receptor cytoplasmic domains may be obtained by total gene synthesis (International Biotechnology Lab., 1987, 5(3), 19-25) or by cloning. The DNA fragments may be expressed in a suitable expression system to obtain polypeptide with tyrosine kinase activity. For example, PDGFRα, PDGFRβ and KDR receptor cytoplasmic domains, obtained by expression of recombinant protein in insect cells, can be shown to display intrinsic tyrosine kinase activity. In the case of the VEGF receptor KDR (Genbank Accession No. L04947), a DNA fragment encoding most of the cytoplasmic domain, commencing with methionine 806 and including the termination codon may be cloned into a baculovirus transplacement vector [for example pAcYM1 (see The Baculovirus Expression System: A Laboratory Guide, L. A. King and R. D. Possee, Chapman and Hall, 1992) or pAc360 or pBlueBacHis (available from Invitrogen Corporation)]. This recombinant construct may be co-transfected into insect cells [for example Spodoptera frugiperda 21 (Sf21) or Spodoptera frugiperda 9 (Sf9)] with viral DNA (for example Pharmingen BaculoGold) to prepare recombinant baculovirus. Details of the methods for the assembly of recombinant DNA molecules and the preparation and use of recombinant baculovirus can be found in standard texts, for example Sambrook et al., 1989, Molecular cloning—A Laboratory Manual, 2nd edition, Cold Spring Harbour Laboratory Press and O'Reilly et al., 1992, Baculovirus Expression Vectors—A Laboratory Manual, W.H. Freeman and Co, New York).
For expression, Sf9 cells were infected with plaque-pure KDR recombinant virus and harvested 48 hours later. […]

Row | Structure (SMILES) | PDGF receptor kinase activity (PDGF receptor kinase) | growth of glioblastoma tumours [1] | in vivo growth of dermatofibrosarcoma protruberans cell cultures [2] | IC50 (PDGFRα tyrosine kinase) [nM] | IC50 (PDGFRβ tyrosine kinase) [nM] | IC50 (phospho-Tyr751 PDGFRβ) [nM] | IC50 (KDR tyrosine kinase) [nM]
1 | Cc1ccc(NC(=O)c2ccc(CN3CCN(C)CC3)cc2)cc1Nc1nccc(-c2cccnc2)n1 [imatinib] | inhibit PDGF receptor kinase activity | inhibits the growth | inhibits the in vivo growth | – | – | – | –
2 | COc1cc2ncnc(Oc3ccc(CC(=O)Nc4nc(C)cs4)cc3)c2cc1OC [Compound 17 within Example 9, N-(4-methylthiazol-2-yl)-2-[4-(6,7-dimethoxyquinazolin-4-yloxy)phenyl]acetamide] | – | – | – | ~300 | ~100 | ~2 | –
3 | COc1cc2ncnc(Oc3ccc(CC(=O)Nc4cccc(N(C)C)n4)cc3)c2cc1OC [Compound 4 within Example 10, N-(6-dimethylaminopyridin-2-yl)-2-[4-(6,7-dimethoxyquinazolin-4-yloxy)phenyl]acetamide] | – | – | – | – | – | ~1 | ~10
4 | COc1cc2ncnc(Oc3ccc(CC(=O)Nc4ccc(N(C)C)cn4)cc3)c2cc1OC [Example 6, N-(5-dimethylaminopyridin-2-yl)-2-[4-(6,7-dimethoxyquinazolin-4-yloxy)phenyl]acetamide] | – | – | – | ~400 | ~300 | ~0.5 | ~10
5 | COc1cccc(NC(=O)Cc2ccc(Oc3ncnc4cc(OC)c(OC)cc34)cc2)c1 [Example 1, N-(3-methoxyphenyl)-2-[4-(6,7-dimethoxyquinazolin-4-yloxy)phenyl]acetamide] | – | – | – | ~250 | ~60 | ~1 | ~1

Reference: patent US8153643B2, “Quinazoline derivatives” (AstraZeneca AB, priority 2004, dated 2012)
